Test results from the supplement of paper PMC6045584.
± gives the standard deviation of the averaged measurements.

Experiments:
17-AAG = compound: C=CCNC1=C2C[C@@H](C)C[C@H](OC)[C@H](O)[C@@H](C)/C=C(\C)[C@H](OC(N)=O)[C@@H](OC)/C=C\C=C(/C)C(=O)NC(=CC1=O)C2=O [17-AAG]; test: surviving fraction relative to DMSO-only wells; higher = less growth inhibition; details: exposure time: 5 days
In short: (§1)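 Tumour cell lines were seeded in log phase at 250–500 cells per well into 384-well plates. Starting 24 hours later, inhibitors were present continuously for five days at 0.5, 1, 5, 10, 50, 100, 500 and 1000 nM. Surviving fraction, from CellTiter-Glo luminescence, is normalised to the median of DMSO-only wells. Three screens per line were required, with replicate Pearson r >0.7 and median Z' >0.3 for a line to be kept.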

VISMODEGIB = compound: CS(=O)(=O)c1ccc(C(=O)Nc2ccc(Cl)c(-c3ccccn3)c2)c(Cl)c1 [VISMODEGIB]; test: as above; details: exposure time: 5 days
In short: as §1

Test System | surviving fraction (17-AAG; 0.5 nM) | surviving fraction (17-AAG; 1 nM) | surviving fraction (17-AAG; 5 nM) | surviving fraction (17-AAG; 10 nM) | surviving fraction (17-AAG; 50 nM) | surviving fraction (17-AAG; 100 nM) | surviving fraction (17-AAG; 500 nM) | surviving fraction (17-AAG; 1000 nM) | surviving fraction (VISMODEGIB; 0.5 nM) | surviving fraction (VISMODEGIB; 1 nM) | surviving fraction (VISMODEGIB; 5 nM) | surviving fraction (VISMODEGIB; 10 nM) | surviving fraction (VISMODEGIB; 50 nM) | surviving fraction (VISMODEGIB; 100 nM) | surviving fraction (VISMODEGIB; 500 nM) | surviving fraction (VISMODEGIB; 1000 nM)
JURKAT HAEMATOPOIETIC AND LYMPHOID TISSUE | 1.02 ± 0.014 | 0.997 ± 0.037 | 1 ± 0.023 | 0.998 ± 0.014 | 0.951 ± 0.032 | 0.886 ± 0.021 | 0.132 ± 0.0082 | 0.0577 ± 0.0015 | 1.09 ± 0.0025 | 1.09 ± 0.017 | 1.06 ± 0.017 | 1.1 ± 0.019 | 0.99 ± 0.016 | 1.04 ± 0.026 | 1.02 ± 0.032 | 1.05 ± 0.017
KPD BONE | 0.907 ± 0.085 | 0.894 ± 0.05 | 0.913 ± 0.01 | 0.828 ± 0.084 | 0.246 ± 0.018 | 0.111 ± 0.011 | 0.0627 ± 0.0015 | 0.0607 ± 0.0045 | 0.899 ± 0.045 | 0.946 ± 0.088 | 1.05 ± 0.078 | 1.01 ± 0.017 | 0.956 ± 0.012 | 1.05 ± 0.073 | 0.98 ± 0.039 | 0.933 ± 0.07
LM7 BONE | 0.755 ± 0.098 | 0.728 ± 0.03 | 0.763 ± 0.026 | 0.722 ± 0.01 | 0.188 ± 0.0075 | 0.121 ± 0.0085 | 0.0937 ± 0.0021 | 0.0923 ± 0.0068 | 0.92 ± 0.055 | 0.955 ± 0.02 | 1.56 ± 1 | 1.03 ± 0.037 | 0.865 ± 0.01 | 0.909 ± 0.067 | 0.849 ± 0.067 | 0.86 ± 0.085
LNCAP PROSTATE | 1.15 ± 0.1 | 1.14 ± 0.025 | 0.769 ± 0.12 | 0.359 ± 0.028 | 0.114 ± 0.009 | 0.0687 ± 0.012 | 0.0517 ± 0.0021 | 0.0523 ± 0.0064 | 1.01 ± 0.17 | 0.95 ± 0.15 | 1.01 ± 0.13 | 1.02 ± 0.21 | 1.14 ± 0.11 | 1.08 ± 0.19 | 1.13 ± 0.13 | 1.08 ± 0.12
MCF7 BREAST | 0.842 ± 0.015 | 0.817 ± 0.027 | 0.811 ± 0.021 | 0.777 ± 0.058 | 0.429 ± 0.0029 | 0.329 ± 0.0083 | 0.271 ± 0.015 | 0.275 ± 0.012 | 0.898 ± 0.029 | 0.916 ± 0.059 | 0.874 ± 0.032 | 0.892 ± 0.097 | 0.883 ± 0.032 | 0.966 ± 0.043 | 0.913 ± 0.041 | 0.904 ± 0.037
MDAMB134 BREAST | 0.609 ± 0.036 | 0.648 ± 0.053 | 0.573 ± 0.066 | 0.667 ± 0.051 | 0.574 ± 0.018 | 0.519 ± 0.011 | 0.524 ± 0.012 | 0.47 ± 0.018 | 0.848 ± 0.089 | 0.886 ± 0.14 | 0.878 ± 0.057 | 0.915 ± 0.062 | 0.687 ± 0.12 | 0.717 ± 0.093 | 0.625 ± 0.024 | 0.662 ± 0.11
MDAMB157 BREAST | 0.897 ± 0.082 | 0.854 ± 0.053 | 0.848 ± 0.18 | 0.482 ± 0.098 | 0.233 ± 0.018 | 0.214 ± 0.038 | 0.163 ± 0.024 | 0.147 ± 0.008 | 0.901 ± 0.11 | 0.943 ± 0.098 | 1.02 ± 0.04 | 0.966 ± 0.06 | 1.02 ± 0.11 | 1.13 ± 0.12 | 1.01 ± 0.049 | 0.977 ± 0.061
MDAMB231 BREAST | 0.95 ± 0.019 | 0.943 ± 0.03 | 0.994 ± 0.033 | 1.01 ± 0.022 | 0.534 ± 0.019 | 0.263 ± 0.0075 | 0.103 ± 0.0031 | 0.0973 ± 0.0038 | 0.9193 ± 0.003 | 0.942 ± 0.018 | 0.95 ± 0.019 | 0.96 ± 0.02 | 0.884 ± 0.014 | 0.9527 ± 0.0036 | 0.85 ± 0.025 | 0.8868 ± 0.0044
MDAMB361 BREAST | 0.765 ± 0.078 | 0.728 ± 0.036 | 0.454 ± 0.036 | 0.332 ± 0.047 | 0.278 ± 0.023 | 0.267 ± 0.015 | 0.324 ± 0.014 | 0.313 ± 0.038 | 0.83 ± 0.021 | 0.798 ± 0.039 | 0.829 ± 0.043 | 0.784 ± 0.051 | 0.571 ± 0.019 | 0.612 ± 0.093 | 0.583 ± 0.049 | 0.598 ± 0.032
MDAMB436 BREAST | 0.801 ± 0.045 | 0.797 ± 0.073 | 0.749 ± 0.077 | 0.581 ± 0.039 | 0.318 ± 0.027 | 0.344 ± 0.033 | 0.328 ± 0.042 | 0.352 ± 0.015 | 0.851 ± 0.041 | 0.865 ± 0.0089 | 0.873 ± 0.027 | 0.852 ± 0.071 | 0.891 ± 0.04 | 0.915 ± 0.056 | 0.751 ± 0.013 | 0.78 ± 0.045
MDAMB453 BREAST | 1.01 ± 0.017 | 1.04 ± 0.03 | 0.842 ± 0.057 | 0.356 ± 0.014 | 0.052 ± 0.027 | 0.048 ± 0.012 | 0.0367 ± 0.0049 | 0.042 ± 0.018 | 0.926 ± 0.025 | 0.966 ± 0.03 | 0.951 ± 0.021 | 1.03 ± 0.043 | 0.89 ± 0.047 | 0.954 ± 0.014 | 0.949 ± 0.027 | 0.9893 ± 0.0072
MDAMB468 BREAST | 0.901 ± 0.05 | 0.826 ± 0.03 | 0.95 ± 0.039 | 0.931 ± 0.04 | 0.92 ± 0.082 | 0.31 ± 0.022 | 0.219 ± 0.029 | 0.218 ± 0.021 | 1.02 ± 0.064 | 0.927 ± 0.056 | 0.996 ± 0.058 | 0.957 ± 0.085 | 0.908 ± 0.083 | 1.02 ± 0.076 | 0.944 ± 0.065 | 0.955 ± 0.1
MFM223 BREAST | 0.757 ± 0.067 | 0.749 ± 0.036 | 0.503 ± 0.049 | 0.33 ± 0.022 | 0.119 ± 0.0098 | 0.0942 ± 0.006 | 0.08 ± 0.0044 | 0.095 ± 0.006 | 1.07 ± 0.11 | 1.1 ± 0.021 | 1.05 ± 0.058 | 1.14 ± 0.035 | 0.841 ± 0.08 | 0.875 ± 0.081 | 0.901 ± 0.068 | 0.853 ± 0.063
MG63 BONE | 0.886 ± 0.028 | 0.88 ± 0.012 | 0.976 ± 0.028 | 0.919 ± 0.017 | 0.957 ± 0.014 | 0.733 ± 0.021 | 0.258 ± 0.0081 | 0.173 ± 0.0036 | 0.925 ± 0.035 | 0.9747 ± 0.0063 | 0.982 ± 0.023 | 0.993 ± 0.026 | 0.983 ± 0.003 | 1.01 ± 0.02 | 0.905 ± 0.007 | 0.966 ± 0.026
MHM BONE | 0.973 ± 0.016 | 0.966 ± 0.026 | 0.987 ± 0.043 | 1.019 ± 0.0027 | 1.04 ± 0.02 | 0.912 ± 0.048 | 0.262 ± 0.023 | 0.184 ± 0.0051 | 0.978 ± 0.04 | 1.018 ± 0.0098 | 1.04 ± 0.035 | 1.02 ± 0.027 | 1.04 ± 0.015 | 1.05 ± 0.017 | 1.04 ± 0.008 | 1.085 ± 0.0059
NCIH441 LUNG | 0.906 ± 0.13 | 1.02 ± 0.04 | 0.982 ± 0.046 | 0.993 ± 0.074 | 0.609 ± 0.069 | 0.416 ± 0.033 | 0.3 ± 0.025 | 0.308 ± 0.018 | 0.971 ± 0.018 | 1.02 ± 0.11 | 1.01 ± 0.032 | 1.05 ± 0.036 | 0.971 ± 0.041 | 0.945 ± 0.041 | 0.9667 ± 0.0045 | 1.03 ± 0.086
NOS1 BONE | 0.804 ± 0.1 | 0.831 ± 0.081 | 0.759 ± 0.069 | 0.651 ± 0.063 | 0.379 ± 0.023 | 0.215 ± 0.027 | 0.0853 ± 0.0021 | 0.0827 ± 0.008 | 1.09 ± 0.11 | 1.13 ± 0.13 | 1.1 ± 0.076 | 1.2 ± 0.065 | 0.926 ± 0.088 | 0.958 ± 0.049 | 0.819 ± 0.022 | 0.832 ± 0.04
NY BONE | 0.9133 ± 0.0047 | 0.924 ± 0.024 | 0.975 ± 0.0089 | 0.771 ± 0.054 | 0.0967 ± 0.0049 | 0.11 ± 0.0063 | 0.068 ± 0.0046 | 0.0527 ± 0.0045 | 0.955 ± 0.018 | 0.968 ± 0.033 | 0.977 ± 0.018 | 1.06 ± 0.027 | 0.993 ± 0.025 | 0.996 ± 0.016 | 0.932 ± 0.058 | 1.01 ± 0.041
OS25HAL BONE | 0.9 ± 0.024 | 0.897 ± 0.041 | 0.909 ± 0.05 | 0.894 ± 0.05 | 0.948 ± 0.015 | 0.762 ± 0.13 | 0.146 ± 0.0098 | 0.141 ± 0.0098 | 1 ± 0.014 | 1 ± 0.033 | 0.9983 ± 0.009 | 0.998 ± 0.017 | 0.967 ± 0.019 | 0.98 ± 0.005 | 1.01 ± 0.048 | 1.02 ± 0.054
OSHN BONE | 0.9227 ± 0.006 | 0.923 ± 0.011 | 0.943 ± 0.013 | 0.937 ± 0.018 | 0.921 ± 0.018 | 0.232 ± 0.071 | 0.123 ± 0.0085 | 0.108 ± 0.0066 | 1.01 ± 0.022 | 1.03 ± 0.019 | 1.05 ± 0.013 | 1.059 ± 0.0084 | 0.955 ± 0.021 | 0.991 ± 0.024 | 0.963 ± 0.031 | 0.989 ± 0.025
